Results on 39 molecules are retold here after patent publication US9283222B2 (priority 2006, dated 2016).

The structures appear in SMILES notation.

Sequence of Recombinant Human Poly(ADP-Ribose) Polymerase (PARP), PARP-1 (P09874 whole entry): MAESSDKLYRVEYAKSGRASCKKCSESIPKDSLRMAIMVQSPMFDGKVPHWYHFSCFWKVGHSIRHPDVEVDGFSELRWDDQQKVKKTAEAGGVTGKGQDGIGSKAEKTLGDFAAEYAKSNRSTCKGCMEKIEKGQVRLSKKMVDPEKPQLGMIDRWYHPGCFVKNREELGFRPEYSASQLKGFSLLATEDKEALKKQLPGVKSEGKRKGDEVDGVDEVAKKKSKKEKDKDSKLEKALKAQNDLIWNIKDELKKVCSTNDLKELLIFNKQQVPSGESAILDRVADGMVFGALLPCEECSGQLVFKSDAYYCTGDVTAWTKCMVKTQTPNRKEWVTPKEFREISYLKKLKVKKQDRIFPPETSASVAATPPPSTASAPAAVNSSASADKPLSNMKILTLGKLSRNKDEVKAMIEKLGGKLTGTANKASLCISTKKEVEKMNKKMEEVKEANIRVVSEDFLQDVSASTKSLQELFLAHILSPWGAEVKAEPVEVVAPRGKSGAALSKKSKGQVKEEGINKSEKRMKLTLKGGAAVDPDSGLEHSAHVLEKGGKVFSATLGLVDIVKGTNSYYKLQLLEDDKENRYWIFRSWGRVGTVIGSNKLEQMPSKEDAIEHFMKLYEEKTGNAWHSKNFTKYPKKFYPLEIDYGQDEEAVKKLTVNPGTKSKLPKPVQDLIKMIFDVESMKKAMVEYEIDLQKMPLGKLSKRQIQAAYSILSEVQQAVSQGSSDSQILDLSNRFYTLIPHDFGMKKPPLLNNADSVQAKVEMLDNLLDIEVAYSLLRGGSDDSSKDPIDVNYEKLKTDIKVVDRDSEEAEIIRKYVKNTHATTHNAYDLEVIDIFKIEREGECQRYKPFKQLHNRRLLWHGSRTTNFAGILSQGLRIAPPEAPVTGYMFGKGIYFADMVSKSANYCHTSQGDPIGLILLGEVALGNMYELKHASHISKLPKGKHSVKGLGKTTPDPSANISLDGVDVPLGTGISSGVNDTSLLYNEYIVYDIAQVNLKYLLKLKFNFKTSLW

The assay concerns the target Recombinant Human Poly(ADP-Ribose) Polymerase (PARP), PARP-1 (Homo sapiens (Human), UniProt P09874). Conditions: read-out: PARP-1 (Ki); Table 1; text calls the values EC50s.
Method: Nicotinamide[2,5′,8-3H]adenine dinucleotide and strepavidin SPA beads were purchased from Amersham Biosiences. […] NAD^+, histone, aminobenzamide, 3-amino benzamide and Calf Thymus DNA (dcDNA) were purchased from Sigma. Stem loop oligonucleotide containing MCAT sequence was obtained from Qiagen. The oligos were dissolved to 1 mM in annealing buffer containing 10 mM Tris HCl pH 7.5, 1 mM EDTA, and 50 mM NaCl, incubated for 5 minutes at 95° C., and annealed at 45° C. for 45 minutes. […] Biotinylated histone H1 was prepared by treating the protein with Sulfo-NHS-LC-Biotin from Pierce. The biotinylation reaction was conducted by slowly and intermittently adding 3 equivalents of 10 mM Sulfo-NHS-LC-Biotin to 100 μM Histone H1 in phosphate-buffered saline, pH 7.5, at 4° C. with gentle vortexing over 1 minute followed by subsequent 4° C. incubation for 1 hour. Streptavidin coated (FlashPlate Plus) microplates were purchased from Perkin Elmer.
PARP1 assay was conducted in PARP assay buffer containing 50 mM Tris pH 8.0, 1 mM DTT, 4 mM MgCl2. […] Auto reactions utilizing SPA bead-based detection were carried out in 100 μL volumes in white 96 well plates.
Take `O=C1CCN1c1cc(Cc2n[nH]c(=O)c3c2CCCC3)ccn1` [Example 101, 4-((2-(2-oxoazetidin-1-yl)pyridin-4-yl)methyl)-5,6,7,8-tetrahydrophthalazin-1(2H)-one]: the Ki amounted to 21 nM.
In the case of `O=C1CCCN1c1ccc(Cc2n[nH]c(=O)c3c2CCCC3)cn1` [Example 104, 4-((6-(2-oxopyrrolidin-1-yl)pyridin-3-yl)methyl)-5,6,7,8-tetrahydrophthalazin-1(2H)-one], the Ki stood at 1230 nM.
Under `O=C1CCN1c1ccc(Cc2n[nH]c(=O)c3c2CCCC3)cn1` [Example 105, 4-((6-(2-oxoazetidin-1-yl)pyridin-3-yl)methyl)-5,6,7,8-tetrahydrophthalazin-1(2H)-one] stands 725 nM; under `O=C(Nc1ccc(Cc2n[nH]c(=O)c3c2CCCC3)cn1)c1ccccc1` [Example 106, N-(5-((4-oxo-3,4,5,6,7,8-hexahydrophthalazin-1-yl)methyl)pyridin-2-yl)benzamide], 290 nM.
With `O=C(Nc1ccc(Cc2n[nH]c(=O)c3c2CCCC3)cn1)c1ccncc1` [Example 107, N-(5-((4-oxo-3,4,5,6,7,8-hexahydrophthalazin-1-yl)methyl)pyridin-2-yl)isonicotinamide] the figure was 216 nM; with `O=C(Nc1ccc(Cc2n[nH]c(=O)c3c2CCCC3)cn1)c1cccnc1` [Example 108, N-(5-((4-oxo-3,4,5,6,7,8-hexahydrophthalazin-1-yl)methyl)pyridin-2-yl)nicotinamide], 576 nM; with `O=c1[nH]nc(Cc2ccc(-c3ccc(Cc4n[nH]c(=O)c5c4CCCC5)cn3)nc2)c2c1CCCC2` [Example 109, 4-((5′-((4-oxo-3,4,5,6,7,8-hexahydrophthalazin-1-yl)methyl)-2,2′-bipyridin-5-yl)methyl)-5,6,7,8-tetrahydrophthalazin-1(2H)-one], 609 nM.
In the case of `CNC(=O)c1ccc(Cc2n[nH]c(=O)c3c2CCCC3)s1` [Example 110, N-methyl-5-((4-oxo-3,4,5,6,7,8-hexahydrophthalazin-1-yl)methyl)thiophene-2-carboxamide], the Ki stood at 372 nM.
With `NCC(=O)Nc1cccc(Cc2n[nH]c(=O)c3c2CCCC3)c1` [Example 111] the figure was 12 nM; with `O=C(Nc1cccc(Cc2n[nH]c(=O)c3c2CCCC3)c1)C1CNC1` [Example 113, N-(3-((4-oxo-3,4,5,6,7,8-hexahydrophthalazin-1-yl)methyl)phenyl)azetidine-3-carboxamide], 6 nM.
Under `CS(=O)(=O)Nc1cccc(Cc2n[nH]c(=O)c3c2CCCC3)c1` [Example 114, N-(3-((4-oxo-3,4,5,6,7,8-hexahydrophthalazin-1-yl)methyl)phenyl)methanesulfonamide] stands 65 nM; under `CC(C)S(=O)(=O)Nc1cccc(Cc2n[nH]c(=O)c3c2CCCC3)c1` [Example 115, N-(3-((4-oxo-3,4,5,6,7,8-hexahydrophthalazin-1-yl)methyl)phenyl)propane-2-sulfonamide], 157 nM.
For `O=c1[nH]nc(Cc2cccc(NS(=O)(=O)c3ccccc3)c2)c2c1CCCC2` [Example 116, N-(3-((4-oxo-3,4,5,6,7,8-hexahydrophthalazin-1-yl)methyl)phenyl)benzenesulfonamide], the Ki worked out at 578 nM.
Under `O=c1[nH]nc(Cc2cccc(NS(=O)(=O)c3cccnc3)c2)c2c1CCCC2` [Example 117, N-(3-((4-oxo-3,4,5,6,7,8-hexahydrophthalazin-1-yl)methyl)phenyl)pyridine-3-sulfonamide] stands 477 nM; under `O=c1[nH]nc(Cc2cccc(NS(=O)(=O)c3ccco3)c2)c2c1CCCC2` [Example 118, N-(3-((4-oxo-3,4,5,6,7,8-hexahydrophthalazin-1-yl)methyl)phenyl)furan-2-sulfonamide], 2030 nM; under `Cn1cnc(S(=O)(=O)Nc2cccc(Cc3n[nH]c(=O)c4c3CCCC4)c2)c1` [Example 119, 1-methyl-N-(3-((4-oxo-3,4,5,6,7,8-hexahydrophthalazin-1-yl)methyl)phenyl)-1H-imidazole-4-sulfonamide], 703 nM.
With `O=c1[nH]nc(Cc2cccc(NS(=O)(=O)c3cccs3)c2)c2c1CCCC2` [Example 120, N-(3-((4-oxo-3,4,5,6,7,8-hexahydrophthalazin-1-yl)methyl)phenyl)thiophene-2-sulfonamide] the figure was 626 nM.
With `N#Cc1ccc(S(=O)(=O)Nc2cccc(Cc3n[nH]c(=O)c4c3CCCC4)c2)cc1` [Example 121, 4-cyano-N-(3-((4-oxo-3,4,5,6,7,8-hexahydrophthalazin-1-yl)methyl)phenyl)benzenesulfonamide] the figure was 776 nM.
Turning to `O=C1CCCN1c1cccc(Cc2n[nH]c(=O)c3c2CCCC3)n1` [Example 125, 4-((6-(2-oxopyrrolidin-1-yl)pyridin-2-yl)methyl)-5,6,7,8-tetrahydrophthalazin-1(2H)-one], the Ki turned out to be 47 nM.
With `O=C(Nc1cccc(Cc2n[nH]c(=O)c3c2CCCC3)n1)c1ccccc1` [Example 126, N-(6-((4-oxo-3,4,5,6,7,8-hexahydrophthalazin-1-yl)methyl)pyridin-2-yl)benzamide] the figure was 286 nM.
Under `O=c1[nH]nc(Cc2cccc(-c3cccc(CNC4CCCC4)c3)c2)c2c1CCCC2` [Example 128, 4-((3′-((cyclopentylamino)methyl)-1,1′-biphenyl-3-yl)methyl)-5,6,7,8-tetrahydrophthalazin-1(2H)-one] stands 43 nM; under `CC1CCCN1Cc1cccc(-c2cccc(Cc3n[nH]c(=O)c4c3CCCC4)c2)c1` (stereo not drawn) [Example 129, 4-((3′-((2-methylpyrrolidin-1-yl)methyl)-1,1′-biphenyl-3-yl)methyl)-5,6,7,8-tetrahydrophthalazin-1(2H)-one], 41 nM; under `O=c1[nH]nc(Cc2cccc(-c3cccc(CNC4CC4)c3)c2)c2c1CCCC2` [Example 130, 4-((3′-((cyclopropylamino)methyl)-1,1′-biphenyl-3-yl)methyl)-5,6,7,8-tetrahydrophthalazin-1(2H)-one], 24 nM.
With `O=c1[nH]nc(Cc2cccc(-c3cccc(CNC4CCC4)c3)c2)c2c1CCCC2` [Example 131, 4-((3′-((cyclobutylamino)methyl)-1,1′-biphenyl-3-yl)methyl)-5,6,7,8-tetrahydrophthalazin-1(2H)-one] the figure was 32 nM; with `O=c1[nH]nc(Cc2cc[n+]([O-])c(Br)c2)c2c1CCCC2` [Example 132, 4-((2-bromo-1-oxidopyridin-4-yl)methyl)-5,6,7,8-tetrahydrophthalazin-1(2H)-one], 1040 nM.
Consider `O=C1CCCN1c1cc(Cc2n[nH]c(=O)c3c2CCCC3)cc[n+]1[O-]` [Example 133, 4-((1-oxido-2-(2-oxopyrrolidin-1-yl)pyridin-4-yl)methyl)-5,6,7,8-tetrahydrophthalazin-1(2H)-one], for which the Ki amounted to 724 nM.
With `CC1(C(=O)Nc2cccc(Cc3n[nH]c(=O)c4c3CCCC4)c2)CC1` [Example 136, 1-methyl-N-(3-((4-oxo-3,4,5,6,7,8-hexahydrophthalazin-1-yl)methyl)phenyl)cyclopropanecarboxamide] the figure was 76 nM.
Under `CC1CC1C(=O)Nc1cccc(Cc2n[nH]c(=O)c3c2CCCC3)c1` (stereo not drawn) [Example 137, 2-methyl-N-(3-((4-oxo-3,4,5,6,7,8-hexahydrophthalazin-1-yl)methyl)phenyl)cyclopropanecarboxamide] stands 69 nM; under `CCOCCC(=O)Nc1cccc(Cc2n[nH]c(=O)c3c2CCCC3)c1` [Example 138, 3-ethoxy-N-(3-((4-oxo-3,4,5,6,7,8-hexahydrophthalazin-1-yl)methyl)phenyl)propanamide], 22 nM; under `O=C1CC[C@@H](C(=O)Nc2cccc(Cc3n[nH]c(=O)c4c3CCCC4)c2)N1` [Example 139, 5-oxo-N-(3-((4-oxo-3,4,5,6,7,8-hexahydrophthalazin-1-yl)methyl)phenyl)-L-prolinamide], 206 nM.
With `O=C1CC[C@H](C(=O)Nc2cccc(Cc3n[nH]c(=O)c4c3CCCC4)c2)N1` [Example 140, 5-oxo-N-(3-((4-oxo-3,4,5,6,7,8-hexahydrophthalazin-1-yl)methyl)phenyl)-D-prolinamide] the figure was 60 nM; with `NC(=O)C1(C(=O)Nc2cccc(Cc3n[nH]c(=O)c4c3CCCC4)c2)CC1` [Example 141], 77 nM.
Take `O=C(COCc1ccccc1)Nc1cccc(Cc2n[nH]c(=O)c3c2CCCC3)c1` [Example 142, 2-(benzyloxy)-N-(3-((4-oxo-3,4,5,6,7,8-hexahydrophthalazin-1-yl)methyl)phenyl)acetamide]: the Ki turned out to be 11 nM.
Under `O=C(CCc1ccccc1)Nc1cccc(Cc2n[nH]c(=O)c3c2CCCC3)c1` [Example 143, N-(3-((4-oxo-3,4,5,6,7,8-hexahydrophthalazin-1-yl)methyl)phenyl)-3-phenylpropanamide] stands 78 nM.
Under `COc1ccc(OC)c(CCC(=O)Nc2cccc(Cc3n[nH]c(=O)c4c3CCCC4)c2)c1` [Example 144, 3-(2,5-dimethoxyphenyl)-N-(3-((4-oxo-3,4,5,6,7,8-hexahydrophthalazin-1-yl)methyl)phenyl)propanamide] stands 125 nM.
`O=C(Nc1cccc(Cc2n[nH]c(=O)c3c2CCCC3)c1)C1(c2ccccc2)CC1` [Example 145, N-(3-((4-oxo-3,4,5,6,7,8-hexahydrophthalazin-1-yl)methyl)phenyl)-1-phenylcyclopropanecarboxamide]: the Ki was 57 nM.
As for `CC[C@H](C(=O)Nc1cccc(Cc2n[nH]c(=O)c3c2CCCC3)c1)c1ccccc1` [Example 146, (2S)-N-(3-((4-oxo-3,4,5,6,7,8-hexahydrophthalazin-1-yl)methyl)phenyl)-2-phenylbutanamide], the Ki is 678 nM.
With `O=C(CCCc1ccccc1)Nc1cccc(Cc2n[nH]c(=O)c3c2CCCC3)c1` [Example 147, N-(3-((4-oxo-3,4,5,6,7,8-hexahydrophthalazin-1-yl)methyl)phenyl)-4-phenylbutanamide] the figure was 41 nM; with `Cc1cccc(OCC(=O)Nc2cccc(Cc3n[nH]c(=O)c4c3CCCC4)c2)c1` [Example 148, 2-(3-methylphenoxy)-N-(3-((4-oxo-3,4,5,6,7,8-hexahydrophthalazin-1-yl)methyl)phenyl)acetamide], 74 nM.
